Experimental data from patent publication US20240342158A1, “METHOD OF TREATING AND/OR PREVENTING TYPE 1 DIABETES WITH CEPHARANTHINE” (ALBERT EINSTEIN COLLEGE OF MEDICINE, priority 2021, published 2024).

How the values were obtained:
[1] = system: splenocytes and draining lymph node cells of immunized NOD-DR3 mice; assay: Small molecule inhibition of cytokine production ex vivo (Milliplex); format: cell-based, humanized NOD-DR3 mice
Experimental: Cytokine Assays: Milliplex mouse cytokines/chemokine magnetic panel (Catalog no. MCYTOMAG-70K, EMD Millipore Corporation, Billerica, MA) was used to assay the cytokines, as described in the art. Briefly, splenocytes were plated at 2×10^6 cells per well in 500 μl of medium (RPMI/10% FBS). Supernatants from stimulated lymphocytes were collected 48 h after stimulation with peptides and stored in −80° C. until the assay was performed. The 96-well plate supplied in the kit was washed with the wash buffer supplied and the plate was shaken for 10 min at room temperature. Standards and quality controls were added, followed by the samples. The pre-mixed beads (Interferon gamma and IL-2) were sonicated, vortexed and added to the wells. After shaking the plate overnight at 4° C., the plate was washed twice with wash buffer. Detection antibodies were added for 1 h at room temperature, and Streptavidin-Phycoerythrin was added for 30 min at room temperature. The plate was washed twice and sheath fluid was added to resuspend the beads for 5 min before reading in Luminex 200 with xPONENT software (Luminex, Austin, Texas).
Small Molecule Inhibition of Cytokine Production Ex Vivo: Eight NOD-DR3 mice were immunized with the three thyroidal/islet peptides. Upon sacrifice, splenocytes were incubated with 1 μM of small molecules (S5, S9, S15, S53) together with TPO.758 (20 μg/ml), GAD.492 (20 μg/ml) or Tg.1571 (20 μg/ml) respectively to assess the blockade of these peptides' presentation by the tested small molecules. Supernatants from stimulated lymphocytes were collected 48 h after stimulation with peptides and small molecules, and stored in −80° C. until the cytokine assay was performed. […]

[2] = system: humanized NOD-DR3 mice immunized with Tg.1571, GAD.492 and TPO.758; assay: Blocking the induction of APS3v in vivo: T-cell stimulation by CFSE analysis; parameters: stimulation index, T cell proliferation induced by GAD.492 / stimulation index, T cell proliferation induced by TPO.758 / T-cell proliferation induced by Tg.1571: dose or concentration left out as unconfirmed
Experimental: Blocking the Induction of APS3v by cepharanthine In Vivo: […] with the peptide mix of Tg.1571, GAD.492 and TPO.758 on day 0; mice were injected with cepharanthine IP again on days 5 and 6 prior to immunization with the same peptide mix on day 7. As controls, four humanized NOD-DR3 littermates were injected with the vehicle that was used to dissolve cepharanthine for in vivo studies [ethanol: PEG400 (Fisher Scientific): saline (5:20:75)] (Frontage Laboratories, Exton, PA) using the same timeline for immunizations.
T-Cell Stimulation and CFSE Analysis: Cells harvested from the spleen and draining lymph nodes of immunized mice were resuspended at 2×10^6 cells/ml in 0.1% BSA/PBS. 1×10^6 cells were labeled with 1.5 μM carboxyfluorescein diacetate succinimidyl ester (CFSE) (Life Technologies). After incubating for 10 min at 37° C., the staining was terminated by the addition of 4 volumes of ice-cold RPMI with 10% FBS. After incubating on ice for 5 min, the cells were washed three times with fresh RPMI and resuspended in fresh medium for counting.
The CFSE-labeled cells were plated at 2×10^5 cells/well in 100 μl medium (RPMI, 10% FBS). The cells were incubated with: medium, Tg.1571, GAD.492, TPO.758 (20 μg/ml), a negative control peptide (NC) (20 μg/ml), or mouse anti-CD3/CD28 beads (Life Technologies) that activate all CD4+ T-cells nonspecifically, as a positive control. The cells were collected after 5 days for flow cytometry analysis. All experiments were performed in quadruplicates. The results were analyzed using Flowjo (Tree Star, Ashland, OR). The stimulation index was calculated by using the following formula: stimulation index=[% proliferating lymphocytes (peptide/mitogen-treated)]/[% proliferating lymphocytes (medium-treated)].
Four humanized NOD-DR3mice were treated with cepharanthine (S53) or vehicle (used to dissolve cepharanthine) for 2 consecutive days before each of the two immunizations with Tg.1571,GAD.492 and TPO.758 peptide mix. At sacrifice, splenocytes and draining lymph node cells were incubated with each peptide and labeled with CFSE for 5 days for T-cell stimulation analysis. Briefly, the CFSE labeled cells were plated at 2×10^5 cells/well in 100 μl medium (RPMI, 10% FBS).The cells were incubated with: medium, Tg.1571, GAD.492, TPO.758 (20 μg/ml), a negative control peptide (NC) (20 μg/ml), or mouse anti-CD3/CD28 beads (Life Technologies) that activate all CD4+ T-cells non-specifically, as a positive control. The cells were collected after 5 days for flow cytometry analysis (see Materials and Methods for details).

For `COc1ccc2cc1Oc1ccc(cc1)C[C@H]1c3c(cc4c(c3Oc3cc5c(cc3OC)CCN(C)[C@@H]5C2)OCO4)CCN1C` [S53, Cepharanthine], the “IFN-g production in response to Tg.1571” value ([1]; 1 μM small molecule + Tg.1571 20 μg/ml, 48 h) was “did not significantly reduce”, the “inhibition of T-cell activation to all 3 peptides (production of IFNγ and IL-2)” value ([1]; 1 micromolar, Tg.1571, GAD.492, TPO.758) was “consistently inhibited T-cell activation to all 3 peptides” and the “stimulation index, T cell proliferation induced by GAD.492” value ([2]; -1, 5, 6, CFSE, 5 days, vehicle control 3.21) was 1.53. The “stimulation index, T cell proliferation induced by TPO.758” value ([2]; -1, 5, 6, CFSE, 5 days, vehicle control 6.39) was 3.11, the “T-cell proliferation induced by Tg.1571” value ([2]; -1, 5, 6, CFSE, 5 days, vs vehicle) was “suppressed T-cell proliferation induced by Tg.1571, although not statistically significant” and the “T-cell activation (lymphocyte proliferation, CFSE) in treated mice vs vehicle treated controls” value ([2]; IV on days -2, -1, 5 and 6 at 1 mg/kg, sacrificed day 21) was “significantly suppressed T-cell activation”.
